Earlier results, collected in patent US20200221696A1, “ACTIVE […] FORMULATION FOR I[…] AND OBTAINED PAINT” (priority 2018, published 2020).
“Also recorded” adds a separate entry of the source. Like-named read-outs stand apart in the source and are kept apart here.

Details: aqueous medium; for Decomposition time (Mean life): stability in words: pH

In the case of `CCOP(=S)(OCC)Oc1nc(Cl)c(Cl)cc1Cl` [Chlorpyrifos], the “Decomposition time (Mean life): stability in words” value (shortened to “Decomposition time … in words”) is given as “Stable in neutral and slightly acid” and the “Decomposition time (Mean life)” value (pH 10) is given as 7 days.

For `CC1(C)C(C=C(Cl)Cl)C1C(=O)OC(C#N)c1cccc(Oc2ccccc2)c1` (centres unmarked) [Cypermethrin], the “Decomposition time (Mean life)” value (pH 9) is given as 7 days.

In the case of `C=CCC1=C(C)C(OC(=O)C2C(C=C(C)C)C2(C)C)CC1=O` [D-allethrin], the “Decomposition time … in words” value is listed as “Stable at pH 5 after 31 days”, the “Decomposition time (Mean life)” value (pH 7) is listed as 500 days and the “Decomposition time (Mean life)” value (pH 9) is listed as “(4.3 days)”.

In the case of `CC1(C)[C@H](C(=O)O[C@H](C#N)c2cccc(Oc3ccccc3)c2)[C@@H]1C=C(Br)Br` [Deltamethrin], the “Decomposition time … in words” value is listed as “more stable in medium acid solutions” and the “Decomposition time (Mean life)” value (pH 7) is listed as 0.33 days.

In the case of `CCOP(=S)(OCC)Oc1cc(C)nc(C(C)C)n1` [Diazinon], the “Decomposition time (Mean life)” value (pH 5) is listed as 31 days, the “Decomposition time (Mean life)” value (pH 7.5) is listed as 185 days and the “Decomposition time (Mean life)” value (pH 9) is listed as 136 days.

In the case of `O=C(NC(=O)c1c(F)cccc1F)Nc1ccc(Cl)cc1` [Diflubenzuron], the “Decomposition time … in words” value is listed as “Stable in a pH range from 5 to 7; also recorded: Hydrolyzed at pH 9”.

In the case of `CCOC(=O)CC(SP(=S)(OC)OC)C(=O)OCC` (centres unmarked) [Malathion], the “Decomposition time … in words” value is given as “Quickly hydrolyzed at pH over 7. The optimal pH”.

For `CC1(C)C(C=C(Cl)Cl)C1C(=O)OCc1cccc(Oc2ccccc2)c1` (centres unmarked) [Permethrin], the “Decomposition time … in words” value is listed as “Stable at pH between 5 and 6”.

For `CCN(CC)c1nc(C)cc(OP(=S)(OC)OC)n1` [Pirimiphos-methyl], the “Decomposition time (Mean life)” value (pH 5) is listed as 7 days and the “Decomposition time (Mean life)” value (pH 8) is listed as 5 days.

For `CC(COc1ccc(Oc2ccccc2)cc1)Oc1ccccn1` (centres unmarked) [Pyriproxifen], the “Decomposition time … in words” value is given as “Stable in pH between 4 and 9”.
